Results: patent US6294526A, “Use of flavone derivatives for induction of β-lactam-sensitivity of MRSA” (priority 1998, dated 2001)
≈ marks a conversion by molar mass, not a printed value. Like-named read-outs stand apart in the source and are kept apart here. One block for each molecule: values may come before it.

Tests used:
MRSA or MSSA = experiment: inhibition of methicillin resistance by flavone derivatives, MRSA or MSSA; type: cell-based, Staphylococcus aureus; details: methicillin with flavone derivative, Table 4
Experimental: (§1) The screening of the present invention may be carried out according to the agar plate dilution method designated by the Japan Society of Chemotherapy (Chemotherapy 29(1), 76-79 (1981)). Mueller-Hinton agar base semi-synthetic medium may be used for a plate culture medium for a sensitivity test together with an inoculating bacteria solution which may be prepared by culturing bacteria to be tested at 37° C. for 20 hours diluted with 8.5% by isotonic sodium chloride solution to 10^6 CFU/ml. Diluted β-lactam solutions are prepared by two times serial dilution. 1 ml of the diluted β-lactam solution and 1 ml of a predetermined concentration of a sample to be tested are added to 8 ml of the plate culture medium for a sensitivity test. […]
(§2) Mueller-Hinton agar base semi-synthetic medium was used as a plate culture medium for the sensitivity test, and an inoculating bacteria solution was prepared by culturing bacteria to be tested at 37° C. for 20 hours and diluting with 8.5% by weight isotonic sodium chloride solution to a final concentration of 10^6 CFU/ml. […] To the resultant plate culture medium for the sensitivity test, the inoculating bacteria were inoculated using a microplanter (SAKUMASEISAKUSYO Co.), cultured for 20 hours at 37° C. and then minimum inhibition concentration (MIC) was assessed.

MRSA [1] = experiment: antibacterial activity (MIC) by agar plate dilution method, MRSA strains; type: cell-based, methicillin-resistant Staphylococcus aureus; details: Staphylococcus aureus, 20 h, MRSA (20 strains); for MIC50: read-out: MIC50; for MIC: MRSA, range over strains, read-out: MIC
In short: (§3)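 Mueller-Hinton agar plates containing 2-fold serial β-lactam dilutions plus a fixed concentration of test sample; inoculum 10^6 CFU/ml, 37° C. for 20 hours. MIC read as concentration inhibiting growth; MIC80 and MIC50 = 80% and 50% growth inhibition. Flavones dissolved in methanol, others in 0.1 N NaOH.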

MSSA [2] = experiment: antibacterial activity (MIC) by agar plate dilution method, MSSA strains; type: cell-based, Methicillin-sensitive Staphylooccus aureus; details: Staphylococcus aureus, 20 h, MSSA (7 strains); for MIC50: read-out: MIC50; for MIC: MSSA, range over strains, read-out: MIC
In short: as §3

MRSA No. 5 [3] = experiment: effect of flavone on antibacterial activity of antibiotics against MRSA No. 5 in bouillon (broth microdilution); type: cell-based, methicillin-resistant Staphylococcus aureus; details: for MIC: Staphylococcus aureus, MRSA, 20 h, read-out: MIC
Experimental: Alternatively, the screening of the present invention may be carried out according to the broth microdilution method designated by the Japan Society of Chemotherapy (Chemotherapy 38(1), 102-105 (1990)). Muellar-Hinton broth is used as a culture medium for the sensitivity test, and 50 mg/ml of calcium(Ca) ion, 25 mg/ml of magnesium(Mg) ion, and 2% sodium chloride (NaCl) are added thereto. An inoculating bacteria solution may be prepared by culturing bacteria to be tested in Mueller-Hinton broth at 37° C. for 20 hours and diluting with Mueller-Hinton broth to 10^5 CFU/ml final concentration of inoculating bacteria. Diluted β-lactam solution is prepared by two times serial dilution series. 10 μl of the diluted β-lactam solution and 10 μl of a predetermined concentration of a sample of bacteria to be tested are added to mix with 80 μl of the culture medium for the sensitivity test. To the resultant plate culture medium for sensitivity test, the inoculating bacteria are added and culturing is carried out for 20 hours at 37° C. and then assessment for a minimum inhibition concentration (MIC) is carried out. A minimum inhibition concentration means the minimum concentration of β-lactam at which growth of bacteria is not recognized by the naked eye.
(G) Antibacterial activity of 6 β-lactams, that is, cephalothin, cefuroxime, cefotaxime, cefoxitin, streptomycin and vancomycin, against MRSA in the presence of 0.5 mM flavone was studied in bouillon.
Muellar-Hinton broth was used as a culture medium for the sensitivity test, and 50 mg/ml of calcium (Ca) ion, 25 mg/ml of maqnesium (Mg) ion, 2% sodium chloride (NaCl) were added thereto. An inoculating bacteria solution was prepared by culturing bacteria to be tested with Mueller-Hinton broth at 37° C. for 20 hours and diluting with Mueller-Hinton broth to 10^5 CFU/ml final concentration of inoculating bacteria. Diluted β-lactam solutions were prepared in two times serial dilutions starting from 10 mM. Ten microliters of the diluted β-lactam solution and 10 μl of 5 mM of flavone were mixed with 80 μl of the culture medium for the sensitivity test in a microplate having U-shaped wells and samples of bacteria to be tested were added thereto. The mixture was cultured 20 hours at 37° C. and then assessed for minimum inhibition concentration (MIC). Minimum inhibition concentration means minimum concentration of a β-lactum at which growth of bacteria is inhibited to the extent that bacteria is not recognized by the naked eye.

MRSA [4] = experiment: antibacterial activity of methicillin in the presence of flavone derivatives, MRSA; type: cell-based, methicillin-resistant Staphylococcus aureus
Experimental: as §1, §2

MSSA [5] = experiment: antibacterial activity of methicillin in the presence of flavone derivatives, MSSA; type: cell-based, Methicillin-sensitive Staphylooccus aureus; details: Staphylococcus aureus, 20 h; methicillin alone; MSSA (7 strains)
Experimental: as §1, §2

MRSA No. 5 [6] = experiment: effect of flavone on antibacterial activity of antibiotics against MRSA No. 5 in bouillon (broth microdilution); type: cell-based, methicillin-resistant Staphylococcus aureus; details: for MIC: Staphylococcus aureus, MRSA, 20 h, read-out: antibacterial activity of methicillin against MRSA No. 5
MRSA [7] = experiment: antibacterial activity of antibiotics alone and in the presence of apigenin (4 μg/ml), MRSA; type: cell-based, methicillin-resistant Staphylococcus aureus; details: for MIC50: MRSA
In short: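 MICs were determined by agar plate dilution on Mueller-Hinton medium with two-fold serial antibiotic dilutions, alone or together with apigenin at 4 μg/ml. The MRSA inoculum was 10^6 CFU/ml. Plates were incubated at 37 °C for 20 h.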

MIC50 (MRSA [1]): > 250 µg/mL
MIC (MRSA [1]): > 250 µg/mL
MIC50 (MSSA [2]): > 250 µg/mL
MIC (MSSA [2]): > 250 µg/mL
SMILES: O=C1c2c(O)cc(O)cc2O[C@H](c2ccc(O)c(O)c2)[C@H]1O [(+)-Taxifolin, (+)-taxifolin]
inhibition of resistance to methicillin (in words) (MRSA or MSSA): inhibited resistance to methicillin

MIC50 (MRSA [1]): > 250 µg/mL
MIC (MRSA [1]): > 250 µg/mL
MIC50 (MSSA [2]): > 250 µg/mL
MIC (MSSA [2]): > 250 µg/mL
SMILES: O=c1cc(-c2ccccc2)oc2ccccc12 [Flavone, flavone]
inhibition of resistance to methicillin (in words) (MRSA or MSSA): inhibited the most strongly

MIC (MRSA No. 5 [3]; Concentration of flavone 0 mM): 1000 µM (≈ 380 µg/mL)
MIC (MRSA No. 5 [3]; Concentration of flavone 0.5 mM): 15.6 µM (≈ 5.93 µg/mL)
MIC50 (MRSA [4]; Staphylococcus aureus, 20 h, methicillin alone, MRSA (20 strains)): > 250 µg/mL
MIC (MSSA [5]): 0.98 to 2 µg/mL
MIC50 (MSSA [5]): 2 µg/mL
MIC (MRSA No. 5 [6]; Control (no flavone)): > 1000 µM
MIC (MRSA No. 5 [6]; flavone 0.11 mM (25 μg/ml)): 1000 µM (≈ 380 µg/mL)
MIC (MRSA No. 5 [6]; flavone 0.2 mM): 31.2 µM (≈ 11.9 µg/mL)
MIC (MRSA No. 5 [6]; flavone 0.23 mM (50 μg/ml)): 31.2 µM (≈ 11.9 µg/mL)
MIC (MRSA No. 5 [6]; flavone 0.5 mM): 15.6 µM (≈ 5.93 µg/mL)
MIC50 (MRSA [7]; Antibiotics alone): > 250 µg/mL
MIC50 (MRSA [7]; Antibiotics alone, listed as methicillin): 1000 µg/mL
MIC50 (MRSA [7]; Staphylococcus aureus, 20 h, antibiotic with Apigenin (4 μg/ml), read-out: MIC50): 15.6 µg/mL
SMILES: COc1cccc(OC)c1C(=O)N[C@@H]1C(=O)N2[C@@H]1SC(C)(C)[C@@H]2C(=O)O [Methicillin, methicillin]
inhibitory effect on resistance of MRSA No.5 (in words) (MRSA No. 5 [3]; in the presence of flavone 0.5 mM): showed inhibitory effect on resistance of MRSA No.5
antibacterial activity of methicillin on MRSA No.5 (in words) (MRSA [4]; under the presence of flavone): strong on MRSA No.5
antibacterial activity of methicillin against MRSA (in words) (MRSA No. 5 [6]; flavone 0.2 mM): prominently shown
antibacterial activity of methicillin against MRSA (in words) (MRSA No. 5 [6]; in proportion to increase of flavone concentration): increased
times as potent as methicillin alone (MRSA [7]; MIC50, methicillin plus 4 μg/ml apigenin vs methicillin alone): about 700 times
inhibition of β-lactam resistant MRSA / improvement of antibacterial effect with apigenin (in words) (MRSA [7]; apigenin 4 μg/ml or less than its MIC): inhibited β-lactam resistant MRSA
